From the CheMixHub ionic liquid set
“And” between values parts separate entries of the source, which are not always exact repeats. Equal values may be shown once. ± gives the uncertainty stated by the source.

Experiment: xn = mol fraction of the nth substance listed

CCCC[NH3+].O=[N+]([O-])[O-] + O
Conditions	viscosity
278.15 K, 101.33 kPa, x2 = 0.435	46.7 ± 1 mPa·s
283.15 K, 101.33 kPa, x2 = 0.435	37.92 ± 0.84 mPa·s and 48.9 ± 0.6 mPa·s
288.15 K, 101.33 kPa, x2 = 0.435	31.29 ± 0.69 mPa·s and 40.44 ± 0.51 mPa·s
293.15 K, 101.33 kPa, x2 = 0.435	26.16 ± 0.58 mPa·s and 33.68 ± 0.42 mPa·s
298 K, 101 kPa, x2 = 0	108.5 ± 4.4 mPa·s
298 K, 101 kPa, x2 = 0.294	33.93 ± 0.98 mPa·s
298 K, 101 kPa, x2 = 0.801	3.93 ± 0.09 mPa·s
298 K, 101 kPa, x2 = 0.9	2.18 ± 0.05 mPa·s
298.15 K, 101.33 kPa, x2 = 0.435	22.32 ± 0.49 mPa·s and 28.34 ± 0.34 mPa·s
303.15 K, 101.33 kPa, x2 = 0.435	18.92 ± 0.42 mPa·s and 23.98 ± 0.29 mPa·s
308.15 K, 101.33 kPa, x2 = 0.435	16.33 ± 0.36 mPa·s and 20.7 ± 0.2 mPa·s
313.15 K, 101.33 kPa, x2 = 0.435	14.22 ± 0.32 mPa·s and 17.85 ± 0.2 mPa·s
318.15 K, 101.33 kPa, x2 = 0.435	12.47 ± 0.28 mPa·s and 16.84 ± 0.19 mPa·s
323.15 K, 101.33 kPa, x2 = 0.435	11.02 ± 0.24 mPa·s and 13.73 ± 0.16 mPa·s
328.15 K, 101.33 kPa, x2 = 0.435	9.79 ± 0.22 mPa·s and 12.73 ± 0.15 mPa·s
333.15 K, 101.33 kPa, x2 = 0.435	8.76 ± 0.19 mPa·s and 10.31 ± 0.13 mPa·s
338.15 K, 101.33 kPa, x2 = 0.435	7.87 ± 0.17 mPa·s and 9.34 ± 0.1 mPa·s

CCCC[n+]1ccn(C)c1.[Br-] + O
Conditions	electrical conductivity [S/m]	viscosity
288.15 K, 100 kPa, x1 = 0.00126	–	1.159 ± 0.044 mPa·s
293.15 K, 100 kPa, x1 = 0.0009002	–	1.033 ± 0.032 mPa·s
293.15 K, 100 kPa, x1 = 0.001799	–	1.057 ± 0.032 mPa·s
293.15 K, 100 kPa, x1 = 0.002696	–	1.069 ± 0.032 mPa·s
298.15 K, 100 kPa, x1 = 0.0001802	–	0.916 ± 0.043 mPa·s
298.15 K, 100 kPa, x1 = 0.0007203	–	0.921 ± 0.043 mPa·s
298.15 K, 100 kPa, x1 = 0.0009002	–	0.918 ± 0.031 mPa·s
298.15 K, 100 kPa, x1 = 0.00126	–	0.93 ± 0.043 mPa·s
298.15 K, 100 kPa, x1 = 0.001799	–	0.938 ± 0.031 mPa·s
298.15 K, 100 kPa, x1 = 0.002696	–	1 ± 0.032 mPa·s
298.15 K, 101 kPa, x1 = 1.982e-05	–	0.888 ± 0.019 mPa·s
298.15 K, 101 kPa, x1 = 3.243e-05	–	0.889 ± 0.019 mPa·s
298.15 K, 101 kPa, x1 = 0.00999	3.16 ± 0.01	–
298.15 K, 101 kPa, x2 = 0.9094	6.16 ± 0.01	–
298.15 K, 101 kPa, x2 = 0.94	6.13 ± 0.01	–
298.15 K, 101 kPa, x2 = 0.9612	5.7 ± 0.01	–
298.15 K, 101 kPa, x2 = 0.9773	4.79 ± 0.01	–
298.15 K, 101.3 kPa, x1 = 0.000902	–	0.911 ± 0.024 mPa·s
298.15 K, 101.3 kPa, x1 = 0.0009056	–	0.91 ± 0.024 mPa·s and 0.911 ± 0.024 mPa·s
298.15 K, 101.3 kPa, x1 = 0.0009074	–	0.911 ± 0.024 mPa·s
298.15 K, 101.3 kPa, x1 = 0.000911	–	0.91 ± 0.024 mPa·s
298.15 K, 101.3 kPa, x1 = 0.00144	–	0.933 ± 0.06 mPa·s and 0.936 ± 0.06 mPa·s
298.15 K, 101.3 kPa, x1 = 0.001806	–	0.934 ± 0.025 mPa·s and 0.935 ± 0.025 mPa·s
298.15 K, 101.3 kPa, x1 = 0.001835	–	0.923 ± 0.025 mPa·s
298.15 K, 101.3 kPa, x1 = 0.001856	–	0.932 ± 0.025 mPa·s
298.15 K, 101.3 kPa, x1 = 0.0036	–	0.966 ± 0.026 mPa·s
298.15 K, 101.3 kPa, x1 = 0.003602	–	0.961 ± 0.026 mPa·s
298.15 K, 101.3 kPa, x1 = 0.003605	–	0.961 ± 0.026 mPa·s and 0.963 ± 0.026 mPa·s
298.15 K, 101.3 kPa, x1 = 0.005384	–	0.994 ± 0.027 mPa·s
298.15 K, 101.3 kPa, x1 = 0.005411	–	0.997 ± 0.027 mPa·s and 0.998 ± 0.027 mPa·s
298.15 K, 101.3 kPa, x1 = 0.005432	–	1.004 ± 0.027 mPa·s
303.15 K, 100 kPa, x1 = 0.0009002	–	0.823 ± 0.031 mPa·s
303.15 K, 100 kPa, x1 = 0.001799	–	0.84 ± 0.031 mPa·s
303.15 K, 100 kPa, x1 = 0.002696	–	0.905 ± 0.031 mPa·s
303.15 K, 100 kPa, x1 = 0.05	–	2 ± 0.2 mPa·s
303.15 K, 100 kPa, x1 = 0.0992	–	3.31 ± 0.33 mPa·s
303.15 K, 100 kPa, x1 = 0.3882	–	31.2 ± 3.1 mPa·s
308.15 K, 100 kPa, x1 = 0.0001802	–	0.751 ± 0.043 mPa·s
308.15 K, 100 kPa, x1 = 0.0007203	–	0.756 ± 0.043 mPa·s
308.15 K, 100 kPa, x1 = 0.0009002	–	0.753 ± 0.031 mPa·s
308.15 K, 100 kPa, x1 = 0.00126	–	0.763 ± 0.043 mPa·s
308.15 K, 100 kPa, x1 = 0.001799	–	0.758 ± 0.031 mPa·s
308.15 K, 100 kPa, x1 = 0.002696	–	0.795 ± 0.031 mPa·s
308.15 K, 101 kPa, x1 = 3.243e-05	–	0.723 ± 0.016 mPa·s
308.15 K, 101 kPa, x1 = 6.584e-05	0.0466 ± 0.00047	0.727 ± 0.015 mPa·s
308.15 K, 101 kPa, x1 = 6.667e-05	–	0.727 ± 0.016 mPa·s
308.15 K, 101 kPa, x1 = 0.0001326	0.0915 ± 0.00093	0.735 ± 0.016 mPa·s
308.15 K, 101.3 kPa, x1 = 0.000902	–	0.738 ± 0.02 mPa·s
308.15 K, 101.3 kPa, x1 = 0.0009056	–	0.735 ± 0.02 mPa·s and 0.736 ± 0.02 mPa·s
308.15 K, 101.3 kPa, x1 = 0.0009074	–	0.737 ± 0.02 mPa·s
308.15 K, 101.3 kPa, x1 = 0.000911	–	0.735 ± 0.02 mPa·s
308.15 K, 101.3 kPa, x1 = 0.001806	–	0.752 ± 0.02 mPa·s
308.15 K, 101.3 kPa, x1 = 0.001835	–	0.746 ± 0.02 mPa·s and 0.747 ± 0.02 mPa·s
308.15 K, 101.3 kPa, x1 = 0.001856	–	0.75 ± 0.02 mPa·s
308.15 K, 101.3 kPa, x1 = 0.0036	–	0.776 ± 0.021 mPa·s
308.15 K, 101.3 kPa, x1 = 0.003602	–	0.773 ± 0.021 mPa·s
308.15 K, 101.3 kPa, x1 = 0.003605	–	0.77 ± 0.021 mPa·s and 0.771 ± 0.021 mPa·s
308.15 K, 101.3 kPa, x1 = 0.005384	–	0.798 ± 0.021 mPa·s
308.15 K, 101.3 kPa, x1 = 0.005411	–	0.801 ± 0.021 mPa·s
308.15 K, 101.3 kPa, x1 = 0.005432	–	0.802 ± 0.021 mPa·s
310.15 K, 101.3 kPa, x1 = 0.000902	–	0.711 ± 0.019 mPa·s
310.15 K, 101.3 kPa, x1 = 0.0009056	–	0.707 ± 0.019 mPa·s
310.15 K, 101.3 kPa, x1 = 0.0009074	–	0.71 ± 0.019 mPa·s
310.15 K, 101.3 kPa, x1 = 0.000911	–	0.707 ± 0.019 mPa·s
310.15 K, 101.3 kPa, x1 = 0.001806	–	0.723 ± 0.019 mPa·s
310.15 K, 101.3 kPa, x1 = 0.001835	–	0.717 ± 0.019 mPa·s and 0.718 ± 0.019 mPa·s
310.15 K, 101.3 kPa, x1 = 0.001856	–	0.723 ± 0.019 mPa·s
310.15 K, 101.3 kPa, x1 = 0.0036	–	0.75 ± 0.02 mPa·s
310.15 K, 101.3 kPa, x1 = 0.003602	–	0.746 ± 0.02 mPa·s
310.15 K, 101.3 kPa, x1 = 0.003605	–	0.74 ± 0.02 mPa·s and 0.742 ± 0.02 mPa·s
310.15 K, 101.3 kPa, x1 = 0.005384	–	0.767 ± 0.021 mPa·s
310.15 K, 101.3 kPa, x1 = 0.005411	–	0.767 ± 0.021 mPa·s
310.15 K, 101.3 kPa, x1 = 0.005432	–	0.772 ± 0.021 mPa·s
313.15 K, 100 kPa, x1 = 0.0009002	–	0.676 ± 0.031 mPa·s
313.15 K, 100 kPa, x1 = 0.001799	–	0.689 ± 0.031 mPa·s
313.15 K, 100 kPa, x1 = 0.002696	–	0.749 ± 0.031 mPa·s
313.15 K, 100 kPa, x1 = 0.3882	–	20 ± 2 mPa·s
313.15 K, 101.3 kPa, x1 = 0.00144	–	0.58 ± 0.1 mPa·s and 0.695 ± 0.06 mPa·s and 0.697 ± 0.06 mPa·s
318.15 K, 100 kPa, x1 = 0.0001802	–	0.634 ± 0.042 mPa·s
318.15 K, 100 kPa, x1 = 0.0007203	–	0.64 ± 0.042 mPa·s
318.15 K, 100 kPa, x1 = 0.0009002	–	0.618 ± 0.031 mPa·s and 0.619 ± 0.031 mPa·s
318.15 K, 100 kPa, x1 = 0.00126	–	0.646 ± 0.042 mPa·s
318.15 K, 100 kPa, x1 = 0.001799	–	0.631 ± 0.031 mPa·s
318.15 K, 100 kPa, x1 = 0.002696	–	0.68 ± 0.031 mPa·s
318.15 K, 101.3 kPa, x1 = 0.000902	–	0.611 ± 0.016 mPa·s
318.15 K, 101.3 kPa, x1 = 0.0009056	–	0.608 ± 0.016 mPa·s and 0.609 ± 0.016 mPa·s
318.15 K, 101.3 kPa, x1 = 0.0009074	–	0.612 ± 0.016 mPa·s
318.15 K, 101.3 kPa, x1 = 0.000911	–	0.608 ± 0.016 mPa·s
318.15 K, 101.3 kPa, x1 = 0.001806	–	0.623 ± 0.017 mPa·s
318.15 K, 101.3 kPa, x1 = 0.001835	–	0.619 ± 0.017 mPa·s
318.15 K, 101.3 kPa, x1 = 0.001856	–	0.622 ± 0.017 mPa·s
318.15 K, 101.3 kPa, x1 = 0.0036	–	0.643 ± 0.017 mPa·s
318.15 K, 101.3 kPa, x1 = 0.003602	–	0.642 ± 0.017 mPa·s
318.15 K, 101.3 kPa, x1 = 0.003605	–	0.638 ± 0.017 mPa·s and 0.639 ± 0.017 mPa·s
318.15 K, 101.3 kPa, x1 = 0.005384	–	0.659 ± 0.018 mPa·s and 0.66 ± 0.018 mPa·s
318.15 K, 101.3 kPa, x1 = 0.005411	–	0.66 ± 0.018 mPa·s
318.15 K, 101.3 kPa, x1 = 0.005432	–	0.665 ± 0.018 mPa·s
323.15 K, 100 kPa, x1 = 0.3882	–	14.6 ± 1.5 mPa·s
333.15 K, 100 kPa, x1 = 0.05	–	1.04 ± 0.1 mPa·s
333.15 K, 100 kPa, x1 = 0.0992	–	1.66 ± 0.17 mPa·s
333.15 K, 100 kPa, x1 = 0.1979	–	3.69 ± 0.37 mPa·s
333.15 K, 100 kPa, x1 = 0.2517	–	4.94 ± 0.5 mPa·s
333.15 K, 100 kPa, x1 = 0.3882	–	10.6 ± 1.1 mPa·s
